Test results: US12187759B2, “TLR7 agonists” (Primmune Therapeutics, Inc., priority 2019, dated 2025)

Experiments:
human TLR7 = biological target: T1, human TLR7 (Homo sapiens, UniProt Q9NYK1); experiment: TLR7 reporter cell assay (HEK293 cells stably expressing human TLR7 with NF-κB-driven SEAP reporter); format: cell-based; conditions: 15-24 hours; for Emax at 500 µM: HEK293, 500 μM compound, SEAP activity (OD 650 nm) relative to 28.5 μM resiquimod, read-out: Response at 500 μM Compound as a Percent of Resiquimod Response; for EC50: fit of SEAP dose response, ymax from 28.5 μM resiquimod
T1 construct: host or cells: HEK293
T1 sequence (Q9NYK1 27-1049): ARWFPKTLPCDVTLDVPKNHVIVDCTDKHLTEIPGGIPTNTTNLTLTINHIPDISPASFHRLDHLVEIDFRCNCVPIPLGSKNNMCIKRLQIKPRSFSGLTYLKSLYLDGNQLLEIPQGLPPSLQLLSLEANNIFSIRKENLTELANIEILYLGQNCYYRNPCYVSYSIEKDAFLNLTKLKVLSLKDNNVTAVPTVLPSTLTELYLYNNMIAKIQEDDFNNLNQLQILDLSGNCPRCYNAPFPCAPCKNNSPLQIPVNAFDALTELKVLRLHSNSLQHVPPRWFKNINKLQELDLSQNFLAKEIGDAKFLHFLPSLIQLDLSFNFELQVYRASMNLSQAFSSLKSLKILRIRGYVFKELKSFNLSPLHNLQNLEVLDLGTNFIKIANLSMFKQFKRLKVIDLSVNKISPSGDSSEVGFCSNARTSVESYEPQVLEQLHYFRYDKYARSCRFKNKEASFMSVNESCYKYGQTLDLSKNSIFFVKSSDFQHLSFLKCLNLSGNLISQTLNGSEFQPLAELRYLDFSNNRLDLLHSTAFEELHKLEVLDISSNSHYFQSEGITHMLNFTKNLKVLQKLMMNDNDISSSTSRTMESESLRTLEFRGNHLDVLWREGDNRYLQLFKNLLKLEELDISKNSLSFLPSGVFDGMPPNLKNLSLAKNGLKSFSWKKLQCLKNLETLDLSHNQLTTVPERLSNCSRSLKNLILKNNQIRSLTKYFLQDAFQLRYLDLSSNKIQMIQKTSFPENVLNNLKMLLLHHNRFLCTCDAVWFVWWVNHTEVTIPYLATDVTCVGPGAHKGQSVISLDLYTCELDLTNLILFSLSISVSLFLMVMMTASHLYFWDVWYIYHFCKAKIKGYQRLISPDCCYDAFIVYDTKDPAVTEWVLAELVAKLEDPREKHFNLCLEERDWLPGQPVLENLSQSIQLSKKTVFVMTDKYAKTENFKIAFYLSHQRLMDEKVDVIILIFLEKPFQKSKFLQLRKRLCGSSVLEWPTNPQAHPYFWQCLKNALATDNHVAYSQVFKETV
Excerpt: The engagement of TLRs by cognate ligands triggers downstream signaling cascades, leading to the activation of NF-κB and other transcription factors which initiate various immunomodulatory effects. The human embryonic kidney cell line, HEK293, is essentially non-responsive to TLR agonists, but ectopic expression of TLRs in these cells allows cognate agonists to activate endogenous NF-κB. Accordingly, the HEK293-TLR-NF-κB inducible reporter system is used to assay TLR agonists.
HEK293 cell lines stably expressing human TLR7 or TLR8 together with an NF-κB-driven-secreted alkaline phosphatase (SEAP) reporter were invented at InvivoGen (San Diego, California, USA) and used to assess compounds of the present invention for TLR7 and TLR8 agonist activities. Cells were seeded at 2-5×10^4 cells/well in 96 well plates (200 μl/well) and treated with various concentrations of compound (10 μl) for 15-24 hours. SEAP activity was determined by measuring OD at 650 nm; the media used to culture the cell lines contains the reagents required for SEAP detection. The EC50 values in Table 1 are calculated from fitting the dose response of measured SEAP activity for each compound to the following equation: Y=ymax*c^nh/(EC50^nh+c^nh)+blank where Y is the experimentally measured OD650 at concentration c of test article, blank is the observed OD650 in the absence of TLR7 agonist, ymax is the difference between the measured OD650 in the presence of 28.5 μM resiquimod and the blank and values of EC50 and nh are determined by nonlinear least squares analysis. Resiquimod is a known TLR7 and TLR8 agonist.
Compound A is 5-amino-3-((2R,3R,5S)-3-hydroxy-5-((S)-1-hydroxypropyl)tetrahydrofuran-2-yl)thiazolo[4,5-d]pyrimidine-2,7(3H,6H)-dione)

[1] = test system: hPBMCs (Human Peripheral Blood Mononuclear Cells); experiment: Induction of interferon-α in hPBMCs in vitro; format: cell-based; conditions: for Emax / minimal effective concentration: Homo sapiens, PBMC; for Emax: 24 h, peak IFNα2a as percentage of peak response of standard 2-Amino-7-(cyclopropylmethyl)-9-B-D-xylofuranosyl-7,9-dihydro-1H-purine-6,8-dione, averaged across donors, read-out: IFNrmax, Relative Maximal IFNα2a Production (%); for minimal effective concentration: minimal effective concentration for interferon-α production (generally at least 80 pg/ml above baseline), geometric mean across at least three donors, 24 hours, read-out: Weighted MEC
Experimental: Treatment of hPBMCs with a TLR7 agonist typically induces some production of interferon-α as well as lesser amounts of a variety of other cytokines and chemokines. A typical experiment uses hPBMCs isolated from a healthy donor and placed in replicate cell culture wells; typically 1.0-7.5×10^6 cells are placed in each well. A test compound is added and the cells are cultured for 24 hours at 37° C. in a humidified atmosphere containing 5% CO2 post-addition; untreated controls are included. Secreted interferon-α production is measured using an a multisubtype interferon-α ELISA kit like those from PBL Assay Sciences or specifically as IFNα2a as part of a panel of cytokines and chemokines using luminex methodologies.
The minimal effective concentration (MEC) is the minimum concentration in a dose response curve where a significant increase in interferon-α production (generally at least 80 pg/ml) is observed above baseline. MEC values for each compound are determined for at least three donors. The weighted MEC for each compound is the geometric mean of all individual MECs across all donors. Concentrations tested typically consist of a two-fold dilution series starting at 100 μM. In the calculation of weighted MEC, any individual MEC value greater the highest concentration tested is arbitrarily set to two times the highest concentration tested unless all MECs for a compound exceed this value. The maximal amount of IFNα2a for each donor is determined from dose dependence for each compound.
In order to normalize for variation in each hPBMC preparation, these values are first transformed by expressing as a percentage of peak response measured with a standard (2-Amino-7-(cyclopropylmethyl)-9-B-D-xylofuranosyl-7,9-dihydro-1H-purine-6,8-dione) and then averaging the results across all donors, this average referred to as IFNrmax.
IFNmax is the maximum amount of IFN observed at any concentration across the evaluated concentration range. MEC and IFNmax values for three select compound are shown for three donors (Table 3). The range of tested concentrations were 0.625-5 μM for Imiquimod, 3.125-100 μM for both Compound A and Compound 1, 12.5-100 μM for Compound 2.

Emax at 500 µM (human TLR7) [%]	EC50 (human TLR7) [µM]	SMILES	Emax [1] [%]	minimal effective concentration [1] [µM]	also measured
< 5	–	C#CCn1c(=O)n([C@@H]2O[C@H](C(=O)NC)C[C@H]2O)c2nc(N)[nH]c(=O)c21 [Compound 42, (2S,4R,5R)-5-(2-Amino-6,8-dioxo-7-(prop-2-yn-1-yl)-1,6,7,8-tetrahydro-9H-purin-9-yl)-4-hydroxy-N-methyltetrahydrofuran-2-carboxamide]	≤ 10	> 50	–
< 5	–	C#CCn1c(=O)n([C@@H]2O[C@H](C(=O)O)C[C@H]2O)c2nc(N)[nH]c(=O)c21 [Compound 40, (2S,4R,5R)-5-(2-Amino-6,8-dioxo-7-(prop-2-yn-1-yl)-1,6,7,8-tetrahydro-9H-purin-9-yl)-4-hydroxytetrahydrofuran-2-carboxylic acid]	≤ 10	> 50	–
< 5	–	C#CCn1c(=O)n([C@@H]2O[C@H](C(N)=O)C[C@H]2O)c2nc(N)[nH]c(=O)c21 [Compound 41, (2S,4R,5R)-5-(2-Amino-6,8-dioxo-7-(prop-2-yn-1-yl)-1,6,7,8-tetrahydro-9H-purin-9-yl)-4-hydroxytetrahydrofuran-2-carboxamide]	≤ 10	> 50	–
97	55	CC[C@H](O)[C@@H]1C[C@@H](O)[C@H](n2c(=O)n(CC(F)(F)F)c3c(=O)[nH]c(N)nc32)O1 [Compound 43, 2-Amino-9-((2R,3R,5S)-3-hydroxy-5-((S)-1-hydroxypropyl)tetrahydrofuran-2-yl)-7-(2,2,2-trifluoroethyl)-7,9-dihydro-1H-purine-6,8-dione]	158	2.5	–

The remaining lines, values behind:

SMILES	Emax at 500 µM (human TLR7) [%]	EC50 (human TLR7) [µM]	Emax [1] [%]	minimal effective concentration [1] [µM]	also measured
CC[C@H](O)[C@H]1O[C@@H](n2c(=O)n(CCC(F)(F)F)c3c(=O)[nH]c(N)nc32)[C@H](O)[C@H]1F [Compound 27, 2-Amino-9-((2R,3S,4R,5R)-4-fluoro-3-hydroxy-5-((S)-1-hydroxypropyl)tetrahydrofuran-2-yl)-7-(3,3,3-trifluoropropyl)-7,9-dihydro-1H-purine-6,8-dione]	61	339	209	≤ 1.6	–
CCCn1c(=O)n([C@@H]2O[C@H]([C@@H](O)CC)[C@H](F)[C@H]2O)c2nc(N)[nH]c(=O)c21 [Compound 26, 2-Amino-9-((2R,3S,4R,5R)-4-fluoro-3-hydroxy-5-((S)-1-hydroxypropyl)tetrahydrofuran-2-yl)-7-propyl-7,9-dihydro-1H-purine-6,8-dione]	59	269	304	≤ 1.6	–
CC[C@H](O)[C@@H]1C[C@@H](O)[C@H](n2c(=O)n(C[C@H](C)O)c3c(=O)[nH]c(N)nc32)O1 (single isomer, unassigned) [Compound 34]	81	137	272	1.6	–
C#CCn1c(=O)n([C@@H]2O[C@H]([C@H](O)CF)C[C@H]2O)c2nc(N)[nH]c(=O)c21 [Compound 23, 2-Amino-9-((2R,3R,5S)-5-((S)-2-fluoro-1-hydroxyethyl)-3-hydroxytetrahydrofuran-2-yl)-7-(prop-2-yn-1-yl)-7,9-dihydro-1H-purine-6,8-dione]	< 5	–	≤ 10	> 50	–
C#CCn1c(=O)n([C@@H]2O[C@H]([C@@H](O)CC)C[C@H]2O)c2nc(N)[nH]c(=O)c21 [Compound 1, 2-amino-9-((2R,3R,5S)-3-hydroxy-5-((S)-1-hydroxypropyl)tetrahydrofuran-2-yl)-7-(prop-2-yn-1-yl)-7,9-dihydro-1H-purine-6,8-dione]	67	103	316	≤ 2.9	Donor 1 IFNmax ([1]; Donor 1, maximum IFN at any concentration of the evaluated range): 3775 pg/mL; Donor 2 MEC ([1]; Donor 2, interferon-α production): 6.25 µM; Donor 2 IFNmax ([1]; Donor 2, maximum IFN at any concentration of the evaluated range): 2129 pg/mL; Donor 3 IFNmax ([1]; Donor 3, maximum IFN at any concentration of the evaluated range): 5623 pg/mL; IFNmax of Compound 1 relative to Compound A ([1]; donor 1): 3.6 fold; IFNmax of Compound 1 relative to imiquimod ([1]; donor 1): 4.8 fold; IFNmax of Compound 1 relative to Compound A ([1]; donor 2): 4.4 fold; IFNmax of Compound 1 relative to imiquimod ([1]; donor 2): 11.0 fold; IFNmax of Compound 1 relative to Compound A ([1]; donor 3): 2.5 fold; IFNmax of Compound 1 relative to imiquimod ([1]; donor 3): 4.2 fold; potency (MEC) of Compound 1 relative to Compound 2 ([1]; in every case (Donors 1, 2 and 3)): ≥ 16 fold
C#CCn1c(=O)n([C@@H]2O[C@H](C(C)(C)O)C[C@H]2O)c2nc(N)[nH]c(=O)c21 [Compound 18, 2-Amino-9-((2R,3R,5S)-3-hydroxy-5-(2-hydroxypropan-2-yl)tetrahydrofuran-2-yl)-7-(prop-2-yn-1-yl)-7,9-dihydro-1H-purine-6,8-dione]	< 5	–	≤ 10	> 50	–
CC[C@H](O)[C@@H]1C[C@@H](O)[C@H](n2c(=O)n(CC3CC3)c3c(=O)[nH]c(N)nc32)O1 [Compound 4, 2-Amino-7-(cyclopropylmethyl)-9-((2R,3R,5S)-3-hydroxy-5-((S)-1-hydroxypropyl)tetrahydrofuran-2-yl)-7,9-dihydro-1H-purine-6,8-dione]	81	132	226	12.5	–
